Literature values, collected in US20220218792A1, “COMPOSITIONS TO PROMOTE THE HEALING OF SKIN ULCERS AND WOUNDS” (priority 2014, published 2022).

Key:
[1] = for gastric tolerability: oral
[2] = not given; remark: listed apart in the source
[3] = test system: indole-positive Proteus spp., Klebsiella and Enterobacter spp.
[4] = test system: polymorphonuclear leukocytes
[5] = aqueous media at physiological pH
[6] = test system: Peptostreptococcus (including Peptoniphilus, Finegoldia and Anaerococcus) and Fusobacterium; conditions: anaerobic genera
[7] = test system: strains of organisms from the susceptible genera
[8] = test system: Staphylococcus, Streptococcus, Neisseria, Escherichia, Proteus (indole-negative), Serratia, Salmonella, Shigella, Pseudomonas, Haemophilus, Vibrio; conditions: aerobic genera
[9] = test system: wounds infected with Escherichia coli; conditions: topically applied, rats
[10] = test system: chronic wounds and ulcers; conditions: topically applied; deep partial-thickness burns, chronic leg ulcers and leprosy ulcers

## C[C@@H]1O[C@@H]1P(=O)(O)O [Fosfomycin calcium monohydrate]
[1]
  gastric tolerability: less irritating to the stomach
0.4% solution
  pH of 0.4% solution: 8.1-9.6
[2]
  solubility in water: sparingly soluble

## C[C@@H]1O[C@@H]1P(=O)(O)O [fosfomycin, [(2R,3S)-3-methyloxiran-2-yl]phosphonic acid]
[1]; intravenous doses of up to 0.5 g/kg/day in human patients
  toxicity to mammalian cells and organs: remarkably non-toxic
[1]; patients
  eosinophilia: 0.2%
  transient rashes (allergy): 0.3 % of cases
  transiently raised liver enzymes: 0.3 % of cases
[3]
  bactericidal activity: less active
[4]
  concentration in polymorphonuclear leukocytes relative to extracellular fluid: twice
[5]
  stability in aqueous media: unstable
[6]
  bactericidal activity: active
[7]; early studies, various antibiotic combinations
  strains showing synergistic effect: 70-100 % of tested strains
[7]; subsequent more extensive studies
  synergy rates: 36-74%
[8]
  bactericidal activity: active

## C[C@@H]1O[C@@H]1P(=O)(O)O [Fosfomycin disodium]
[1]
  gastric tolerability: irritant to the stomach
other
  pH of 5% solution: 9.0-10.5
[2]
  solubility in water: highly soluble

## C[C@@H]1O[C@@H]1P(=O)(O)O.NC(CO)(CO)CO [Fosfomycin trometamol]
[1]
  gastric tolerability: well tolerated
other
  pH of 5% solution: 3.5-5.5
[2]
  solubility in water: highly soluble

## GM-CSF: monomeric glycoprotein of 127 amino-acid residues, colony-stimulating factor (SEQ ID NO: 2)
[9]
  bacterial counts: reduced bacterial counts
  wound closure: accelerated wound closure
[10]
  healing of wounds and ulcers: beneficial
